Converted amounts (≈) assume the structure as drawn.
Legend:
[1] = target: T1, Peroxisome proliferator-activated receptor delta (Homo sapiens, UniProt Q03181); assay: Partial agonist activity at PPARdelta (unknown origin)
T1 sequence (Q03181 whole entry): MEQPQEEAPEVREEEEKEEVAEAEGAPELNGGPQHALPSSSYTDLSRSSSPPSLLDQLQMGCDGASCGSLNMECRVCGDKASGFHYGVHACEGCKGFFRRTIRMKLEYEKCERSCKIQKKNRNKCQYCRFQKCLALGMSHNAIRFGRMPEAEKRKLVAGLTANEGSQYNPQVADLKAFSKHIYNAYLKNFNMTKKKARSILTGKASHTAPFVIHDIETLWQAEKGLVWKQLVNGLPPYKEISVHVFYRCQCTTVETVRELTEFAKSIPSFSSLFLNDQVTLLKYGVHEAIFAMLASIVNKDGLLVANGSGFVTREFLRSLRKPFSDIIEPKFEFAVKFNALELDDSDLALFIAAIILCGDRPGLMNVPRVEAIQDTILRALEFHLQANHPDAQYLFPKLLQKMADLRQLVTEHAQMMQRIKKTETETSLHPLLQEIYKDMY

[2] = buffer
physchem [3] = settings: buffer
[4] = Lipophilicity, logD of compound; format: physicochemical; settings: octanol/water
physchem [5] = settings: octanol/water
[6] = Permeability of compound in human Caco-2 cells; format: ADME, cell-based; settings: read-out: permeability
[7] = test system: Human immunodeficiency virus 1; assay: Antiviral activity against HIV-1; format: functional, organism-based
[8] = test system: Mycobacterium tuberculosis; assay: microbe, parasite or virus in culture
Plasmepsin II = Plasmepsin II (Plasmodium falciparum, UniProt P46925); assay: Inhibition of Plasmodium falciparum 3D7 plasmepsin II
MCF7 = assay: Antiproliferative activity against ER-positive human MCF7 cells after 48 hrs by MTT assay; format: functional, cell-based; settings: MCF7, 48 h

Chain of Plasmepsin II (P46925 whole entry): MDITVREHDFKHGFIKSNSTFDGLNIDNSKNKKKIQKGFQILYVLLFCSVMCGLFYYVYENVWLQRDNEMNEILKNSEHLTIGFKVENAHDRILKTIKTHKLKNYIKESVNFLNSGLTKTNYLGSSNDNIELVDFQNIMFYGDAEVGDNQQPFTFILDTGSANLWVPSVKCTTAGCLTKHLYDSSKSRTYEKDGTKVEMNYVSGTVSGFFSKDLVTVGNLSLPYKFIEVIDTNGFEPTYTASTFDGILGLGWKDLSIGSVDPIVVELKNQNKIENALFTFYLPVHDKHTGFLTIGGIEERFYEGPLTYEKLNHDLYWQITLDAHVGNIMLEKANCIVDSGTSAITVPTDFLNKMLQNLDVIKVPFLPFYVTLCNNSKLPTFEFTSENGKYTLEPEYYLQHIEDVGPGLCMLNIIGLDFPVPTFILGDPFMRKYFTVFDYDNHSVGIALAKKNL

Structure (SMILES)	solubility thermodynamic (physchem [3])	further results
CCCCOc1ccc(-c2cccc(C(=O)O)c2)cc1CNC(=O)c1ccc(C(F)(F)F)cc1F		EC50 [1]: 170 nM; Therm_solubility [2]: 1 µg/mL
CCn1nc(-c2cccc(Cl)c2)nc2c(=O)n(C)c(=O)nc1-2	28.5 µM	
CCCN(CCOC)c1cc(C)nc2c(-c3ccc(OC)cc3OC)c(C)nn12	10000 µg/mL	logD [4]: 2.78
CCCCOc1ccc(-c2cncc(C(=O)O)c2)cc1CNC(=O)c1ccc(C(F)(F)F)cc1F	7.6 µg/mL	EC50 [1]: 220 nM
CCCCOc1ccc(-c2c(C)ncc(C(=O)O)c2C)cc1CNC(=O)c1ccc(C(F)(F)F)cc1F		EC50 [1]: 76 nM
COc1cc2[nH]c(C)c(-c3ccccc3)c(=O)c2cc1Cl	6 µM	logD [4]: 1.65
CC(=O)NC[C@@H]1OC(=O)N2c3ccc(-c4ccc(C#N)nc4)cc3OC[C@@H]12	10 µg/mL	
C=CC(=O)Nc1cccc(N2C(=O)N(Cc3ccccc3)Cc3cnc(Nc4ccc(N5CCN(C)CC5)cc4OC)nc32)c1		Therm_solubility [2]: 4000 µg/mL
Cc1c(-c2ccc(Cc3ccc(OC(F)(F)F)cc3)cc2)[nH]c2cc(Cl)ccc2c1=O		logP (physchem [5]): 6.4
Cc1c(-c2ccc(-c3ccc(OC(F)(F)F)cc3)nc2)[nH]c2ccccc2c1=O		logP (physchem [5]): 4.2
CC(C)(C)OC(=O)N1CCN(c2ncc(OCc3ccc(S(C)(=O)=O)cc3)cn2)CC1	0.03 µM	
CC(C)(C)OC(=O)N1CCN(c2ncc(OCc3ccncc3C#N)cn2)CC1	24 µM	logD [4]: 3.3
FC(F)(F)c1c(N2CCC(c3ccccc3)CC2)ccn2c(CC3CC3)nnc12		Papp [6]: 120 nm/s; logP (physchem [5]): 4.6
C/C(=C1/C(=O)Nc2ccc(NC(N)=O)cc21)c1cc(CNC(=O)C2CCNCC2)c[nH]1	17 µg/mL	
CN(C)CCNC(=O)c1cccc(-c2c[nH]c(/C=C3\C(=O)Nc4ccc(NC(N)=O)cc43)c2)c1	13 µg/mL	
COc1ccc(-c2oc3cc(O[C@@H]4O[C@H](CO[C@@H]5O[C@@H](C)[C@H](O)[C@@H](O)[C@H]5O)[C@@H](O)[C@H](O)[C@H]4O)cc(O)c3c(=O)c2Br)cc1O	100000 µg/mL	logP (physchem [5]): 0.93
O=C(C(=O)N1CCN(C(=O)c2ccccc2)CC1)c1c[nH]c2c(-n3ccnn3)ncc(F)c12	7 µg/mL	EC50 [7]: 0.006 nM
COc1c(C(=O)Nc2ccc(NS(C)(=O)=O)cc2)cc(N2CCC(=O)NC2=O)cc1C(C)(C)C	1500 µg/mL	
O=C(Nc1nnc(C2CC2)o1)NC12CC3CC(CC(C3)C1)C2	38.3 µg/mL	MIC [8]: 12.5 mg/L (≈ 41.3 µM)
Cn1cc(NC(=O)NC23CC4CC(CC(C4)C2)C3)cn1	41.1 µg/mL	MIC [8]: 50 mg/L (≈ 182 µM)
Cc1cc(NC(=O)NC23CC4CC(CC(C4)C2)C3)no1	25.9 µg/mL	MIC [8]: 27 mg/L (≈ 98.1 µM)
NC(=O)NCCSc1nc(N)nc(-c2c(Cl)cc3c4c(cccc24)COC3)n1	773 µM	
Cc1cc2ccccc2n1CCNC(=O)c1ccc(-c2nnn[nH]2)cc1		Therm_solubility [2]: 0.257 µM

Structure (SMILES)	solubility thermodynamic (physchem [3])	further results
COc1cnc(-n2cnc(C)n2)c2[nH]cc(C(=O)C(=O)N3CCN(C(=O)c4ccccc4)CC3)c12	147 µg/mL	
CN(C)CCn1cc(C(=O)NC23CC4CC(CC(C4)C2)C3)c(=O)c2ccc(F)cc21	5.6 µg/mL	
Nc1ncc(-c2nc(N3CCOCC3)nc3c2CCN3C(=O)Nc2ccccc2)cn1	3 µg/mL	
COc1ccc(CNc2c3c(nc4ccc(C#N)cc24)CCN(C(C)=O)C3)cc1Cl	500 µM	
CCCCCc1ccc(-c2cc(CCC(=O)O)c3c(=O)n(CC4CCCO4)c(N)nc3c2)cc1 (stereo unspecified)	0.1 µg/mL	IC50 (Plasmepsin II): 50 nM
Nc1nc2cc(-c3ccc(CCCc4ccccc4)cc3)cc(CCC(=O)O)c2c(=O)n1CC1CCCO1 (stereo unspecified)		IC50 (Plasmepsin II): 16700 nM; Therm_solubility [2]: 0.17 µg/mL
COc1cc2c(cc1OC)CN(C(=O)/C=C/c1c(-c3ccccc3)n(C)c3ncccc13)CC2		Therm_solubility [2]: 141 µg/mL
NC(=O)Nc1ccc2c(c1)/C(=C/c1ccc[nH]1)C(=O)N2	2000 µg/mL	
COc1cc(NCc2cc3cc(Cl)ccc3[nH]c2=O)ccc1C#N	0.43 µM	
COc1cc(NCc2cc3cc(C)c(C)cc3[nH]c2=O)ccc1-n1cnnn1	0.04 µM	
Cc1cc(/C=C/C#N)cc(C)c1Oc1nc(Nc2ccc(CN3CCN(S(C)(=O)=O)CC3)cc2)nc(N)c1Br	30.9 µg/mL	EC50 [7]: 7.5 nM
NC(=O)Nc1ccc2c(c1)/C(=C/c1cc(-c3ccccn3)c[nH]1)C(=O)N2	29 µg/mL	
CC1CC(=O)Oc2c1ccc1c2[C@@H](OC(=O)[C@@]23CC[C@@](C)(C(=O)O2)C3(C)C)[C@@H](OC(=O)[C@@]23CC[C@@](C)(C(=O)O2)C3(C)C)C(C)(C)O1 (stereo partly specified)		EC50 [7]: 1.5 nM; logP (physchem [5]): 4.82
Nc1nc2cc(-c3ccc(CCCc4ccccc4)cc3)ccc2c(=O)n1CC1CCC(c2ccccc2)O1 (stereo unspecified)	< 0.01 µg/mL	IC50 (Plasmepsin II): 3200 nM
C=CCNc1nc2c(s1)CC(C)(C)[C@H]1[C@H](O)[C@@]3(O)OC[C@@]21[C@@H]1CC[C@H]2C(=C)C(=O)[C@]13[C@@H]2O	81200 µg/mL	IC50 (MCF7): 200 nM
C=C1C(=O)[C@]23[C@H](O)[C@H]1CC[C@H]2[C@@]12CO[C@]3(O)[C@@H](O)[C@@H]1C(C)(C)Cc1sc(C)nc12	4400 µg/mL	IC50 (MCF7): 2600 nM
C[C@H]1[C@H](COP(=O)([O-])[O-])OC(=O)N1c1ccc(-c2ccc([C@@H]3CN(C)C(=O)O3)nc2)cc1O.[Na+].[Na+]	227000 µg/mL	
CC1c2ccc3c(c2OC(=O)C1CO)[C@@H](OC(=O)[C@@]12CC[C@@](C)(C(=O)O1)C2(C)C)[C@@H](OC(=O)[C@@]12CC[C@@](C)(C(=O)O1)C2(C)C)C(C)(C)O3 (stereo partly specified)		EC50 [7]: 4 nM; logP (physchem [5]): 3.62
CN1C(=O)CCC(N2C(=O)c3ccccc3C2=O)C1=O (stereo unspecified)	276 µg/mL	
Cc1sc(-c2ccccc2)nc1CCOc1ccc(CC(Nc2ccccc2C(=O)c2ccccc2)C(=O)O)cc1 (stereo unspecified)	1 µg/mL	
COCCCc1nc(CCOc2ccc(CC(Nc3ccccc3C(=O)c3ccccc3)C(=O)O)cc2)c(C)s1 (stereo unspecified)	210 µg/mL	
CCC1(O)C(=O)OCc2c1cc1n(c2=O)Cc2c-1nc1ccc(O)cc1c2CN(C)C (stereo unspecified)	1000 µg/mL	
CCCCCc1ccc(-c2cc(-c3ccc(C(=O)O)cc3)c3c(=O)n(CC4CCC(c5ccccc5)O4)c(N)nc3c2)cc1 (stereo unspecified)	0.01 µg/mL	IC50 (Plasmepsin II): 740 nM

Structure (SMILES)	solubility thermodynamic (physchem [3])	further results
O=c1nc2n(CCCC(F)(F)F)nc(-c3cccc(C(F)(F)F)c3)nc-2c(=O)n1CCC1CC1	200 µM	
C=C1C(=O)[C@]23[C@H](O)[C@H]1CC[C@H]2[C@@]12CO[C@]3(O)[C@@H](O)[C@@H]1C(C)(C)Cc1sc(NC)nc12	42400 µg/mL	IC50 (MCF7): 1300 nM
Cc1nc(N2CCN(c3ncc(OCc4ccncc4C#N)cn3)CC2)no1		logD [4]: 4
CCCOc1ccc(CC(Cc2ccccc2)C(=O)O)cc1CNC(=O)c1ccc(C23CC4CC(CC(C4)C2)C3)cc1 (stereo unspecified)	1 µg/mL	
Cc1sc(N2CCNCC2)nc1CCOc1ccc(CC(Nc2ccccc2C(=O)c2ccccc2)C(=O)O)cc1 (stereo unspecified)	10000 µg/mL	
O=C1NC(c2ccccc2)(c2ccccc2)C(=O)N1COP(=O)([O-])O.[Na+]	142000 µg/mL	
Cc1sc(N2CCOCC2)nc1CCOc1ccc(CC(Nc2ccccc2C(=O)c2ccccc2)C(=O)O)cc1 (stereo unspecified)	180 µg/mL	
CCCCCn1cc(C(=O)NC23CC4CC(CC(C4)C2)C3)c(=O)c2ccc(F)cc21	0.014 µg/mL	
CCCCCCCc1c(C)nc2cc(OC)ccc2c1O	2 µM	logD [4]: 3.69
O=c1cc(-c2c(F)cccc2F)oc2ccc3ccccc3c12	153 µg/mL	
Oc1nc2cc(Cl)c(Cl)c(Cn3cncn3)c2nc1O	10 µg/mL	
COc1ccc2c3c(c4cc(OC)c(OC)cc4c2c1)C[C@H]1CCCN1C3 [(-)-ANTOFINE]		Therm_solubility [2]: 1 µg/mL
CC(=O)Nc1nc2c(Oc3cc(-c4ccc(C(F)(F)F)cc4)ncn3)cccc2s1 [AMG-517]	1 µg/mL	
O=C(NCCN1CCCC1)c1cc(-c2ccc(CN3CCOCC3)cc2)nc2ccc(F)cc12 [CABAMIQUINE]	216 µM	
c1cn2cc(-c3ccc4cn[nH]c4c3)nc(Nc3ccc(N4CCOCC4)cc3)c2n1 [ENTOSPLETINIB]	28 µg/mL	
Cc1cc(C#N)cc(C)c1Oc1nc(Nc2ccc(C#N)cc2)nc(N)c1Br [ETRAVIRINE]		Therm_solubility [2]: 1 µg/mL
COc1cnc(-n2cnc(C)n2)c2c1c(C(=O)C(=O)N1CCN(C(=O)c3ccccc3)CC1)cn2COP(=O)(O)O [FOSTEMSAVIR]	11000 µg/mL	
C=C1C(=O)[C@]23[C@H](O)[C@H]1CC[C@H]2[C@@]12CO[C@]3(O)[C@@H](O)[C@@H]1C(C)(C)CC[C@@H]2O [ORIDONIN]	1290 µg/mL	IC50 (MCF7): 6600 nM
O=C1NC(=O)C(c2ccccc2)(c2ccccc2)N1 [PHENYTOIN]		Therm_solubility [2]: 20000 µg/mL
Cn1nnc(-c2ccc(-c3ccc(N4C[C@H](COP(=O)(O)O)OC4=O)cc3F)cn2)n1 [TEDIZOLID PHOSPHATE]	50000 µg/mL	
Cn1nnc(-c2ccc(-c3ccc(N4C[C@H](CO)OC4=O)cc3F)cn2)n1 [TEDIZOLID]	136 µg/mL	
O=C1CCC(N2C(=O)c3ccccc3C2=O)C(=O)N1 (stereo unspecified) [THALIDOMIDE]	52 µg/mL	

Reference: ChEMBL document CHEMBL5120754, “Structural modification aimed for improving solubility of lead compounds in early phase drug discovery” (Bioorg Med Chem, 2022)
